The kinase profiling compilation of Christmann-Franck et al. (2016)

Columns and labels:
Assay in all cases: radiometric filter-binding kinase assay
LCK (mouse) = settings: accession and sequence are those of the human protein
PHKG1 (human) = PHKG1 (human) (UniProt Q16816)
MKNK1 (human) = MKNK1 (human) (UniProt Q9BUB5)
CSNK2A1 (human) = CSNK2A1 (human) (UniProt P68400)
MAPK10 (human) = MAPK10 (human) (UniProt P53779)
[1] = tested on: AKT2 (human), P31751 [S474D]
CaMK1 (human) = CaMK1 (human) (UniProt Q14012)
YES1 (human) = YES1 (human) (UniProt P07947)
MARK4 (human) = MARK4 (human) (UniProt Q96L34)
PAK4 (human) = PAK4 (human) (UniProt O96013)
IGF1R (human) = IGF1R (human) (UniProt P08069)
AURKB (human) = AURKB (human) (UniProt Q96GD4)
SYK (human) = SYK (human) (UniProt P43405)
CHEK1 (human) = CHEK1 (human) (UniProt O14757)
EPHB3 (human) = EPHB3 (human) (UniProt P54753)
RIPK2 (human) = RIPK2 (human) (UniProt O43353)
NUAK1 (human) = NUAK1 (human) (UniProt O60285)
PRKCZ (human) = PRKCZ (human) (UniProt Q05513)
MAP3K11 (human) = MAP3K11 (human) (UniProt Q16584)
NTRK1 (human) = NTRK1 (human) (UniProt P04629)
MAP3K9 (human) = MAP3K9 (human) (UniProt P80192)
INSRR (human) = INSRR (human) (UniProt P14616)
DYRK1A (human) = DYRK1A (human) (UniProt Q13627)
MAPK13 (human) = MAPK13 (human) (UniProt O15264)
JAK2 JH1 JH2 (human) = JAK2 JH1 JH2 (human) (UniProt O60674)
MST4 (human) = MST4 (human) (UniProt Q9P289)
PRKAA1 or PRKAA2 (rat) = settings: accession and sequence are those of the human protein
SRC (human) = SRC (human) (UniProt P12931)
PRKACA (human) = PRKACA (human) (UniProt P17612)
CDK2 CCNA2 (human) = CDK2 CCNA2 (human) (UniProt P20248+P24941)
MINK1 (human) = MINK1 (human) (UniProt Q8N4C8)
INSR (human) = INSR (human) (UniProt P06213)
MARK3 (human) = MARK3 (human) (UniProt P27448)
CAMKK2 (human) = CAMKK2 (human) (UniProt Q96RR4)
MAP2K1 (human) = MAP2K1 (human) (UniProt Q02750)
PIM2 (human) = PIM2 (human) (UniProt Q9P1W9)

IGF1R (human), sequence (P08069 whole entry, looked up): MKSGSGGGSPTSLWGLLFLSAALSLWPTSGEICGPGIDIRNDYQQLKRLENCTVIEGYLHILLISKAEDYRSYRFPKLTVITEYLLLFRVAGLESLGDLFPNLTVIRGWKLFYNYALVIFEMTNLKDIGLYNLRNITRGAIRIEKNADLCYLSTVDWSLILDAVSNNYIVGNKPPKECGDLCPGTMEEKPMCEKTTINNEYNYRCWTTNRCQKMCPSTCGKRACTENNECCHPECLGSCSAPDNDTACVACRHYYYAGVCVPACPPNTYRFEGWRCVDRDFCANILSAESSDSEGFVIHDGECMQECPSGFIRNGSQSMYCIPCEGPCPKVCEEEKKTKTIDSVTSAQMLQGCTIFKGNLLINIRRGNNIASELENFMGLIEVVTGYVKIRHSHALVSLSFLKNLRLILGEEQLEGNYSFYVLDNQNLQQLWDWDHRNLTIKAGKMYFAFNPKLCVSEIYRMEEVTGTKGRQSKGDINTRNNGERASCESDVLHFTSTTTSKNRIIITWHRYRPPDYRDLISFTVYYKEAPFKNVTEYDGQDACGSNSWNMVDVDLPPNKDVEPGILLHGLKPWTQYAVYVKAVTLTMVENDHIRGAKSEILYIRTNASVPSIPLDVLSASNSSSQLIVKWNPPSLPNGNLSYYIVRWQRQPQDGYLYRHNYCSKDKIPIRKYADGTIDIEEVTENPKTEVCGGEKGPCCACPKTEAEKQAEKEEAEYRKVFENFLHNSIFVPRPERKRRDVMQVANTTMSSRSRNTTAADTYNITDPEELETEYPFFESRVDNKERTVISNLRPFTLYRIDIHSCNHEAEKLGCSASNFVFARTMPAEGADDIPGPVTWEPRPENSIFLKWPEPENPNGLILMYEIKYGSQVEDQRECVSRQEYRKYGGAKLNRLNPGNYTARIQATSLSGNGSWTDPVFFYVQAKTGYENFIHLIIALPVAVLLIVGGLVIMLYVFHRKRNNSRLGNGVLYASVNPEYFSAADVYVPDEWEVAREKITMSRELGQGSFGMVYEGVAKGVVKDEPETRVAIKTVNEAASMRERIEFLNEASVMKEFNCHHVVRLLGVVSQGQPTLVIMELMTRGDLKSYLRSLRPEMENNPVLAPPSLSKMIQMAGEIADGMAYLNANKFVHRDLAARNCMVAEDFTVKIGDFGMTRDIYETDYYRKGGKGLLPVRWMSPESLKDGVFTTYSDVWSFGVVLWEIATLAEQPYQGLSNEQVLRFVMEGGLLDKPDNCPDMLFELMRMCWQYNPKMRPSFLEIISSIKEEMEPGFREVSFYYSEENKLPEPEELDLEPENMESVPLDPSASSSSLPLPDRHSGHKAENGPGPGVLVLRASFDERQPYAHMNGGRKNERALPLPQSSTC
PHKG1 (human), sequence (Q16816 whole entry, looked up): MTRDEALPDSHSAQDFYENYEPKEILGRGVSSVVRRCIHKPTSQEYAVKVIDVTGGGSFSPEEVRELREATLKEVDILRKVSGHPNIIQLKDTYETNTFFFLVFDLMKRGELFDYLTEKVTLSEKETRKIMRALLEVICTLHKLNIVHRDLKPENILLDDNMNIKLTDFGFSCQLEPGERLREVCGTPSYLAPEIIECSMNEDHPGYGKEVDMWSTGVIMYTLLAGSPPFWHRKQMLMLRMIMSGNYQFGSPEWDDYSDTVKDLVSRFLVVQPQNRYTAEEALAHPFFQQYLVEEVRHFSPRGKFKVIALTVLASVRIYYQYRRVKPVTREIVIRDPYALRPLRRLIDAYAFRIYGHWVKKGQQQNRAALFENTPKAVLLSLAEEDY
YES1 (human), sequence (P07947 whole entry, looked up): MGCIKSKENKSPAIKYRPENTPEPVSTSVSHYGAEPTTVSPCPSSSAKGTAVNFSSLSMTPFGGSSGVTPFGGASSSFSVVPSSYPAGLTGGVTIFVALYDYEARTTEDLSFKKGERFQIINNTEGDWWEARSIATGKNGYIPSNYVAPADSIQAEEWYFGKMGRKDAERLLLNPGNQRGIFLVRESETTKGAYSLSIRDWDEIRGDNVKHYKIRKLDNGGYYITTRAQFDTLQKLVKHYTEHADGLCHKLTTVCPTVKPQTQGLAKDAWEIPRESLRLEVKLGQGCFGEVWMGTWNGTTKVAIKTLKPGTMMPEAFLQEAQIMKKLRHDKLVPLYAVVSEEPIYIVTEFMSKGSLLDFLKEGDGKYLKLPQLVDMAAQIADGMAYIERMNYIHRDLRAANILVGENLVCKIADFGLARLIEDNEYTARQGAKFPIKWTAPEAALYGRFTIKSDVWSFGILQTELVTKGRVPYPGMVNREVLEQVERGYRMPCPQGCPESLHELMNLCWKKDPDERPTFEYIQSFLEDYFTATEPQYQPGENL
CSNK2A1 (human), sequence (P68400 whole entry, looked up): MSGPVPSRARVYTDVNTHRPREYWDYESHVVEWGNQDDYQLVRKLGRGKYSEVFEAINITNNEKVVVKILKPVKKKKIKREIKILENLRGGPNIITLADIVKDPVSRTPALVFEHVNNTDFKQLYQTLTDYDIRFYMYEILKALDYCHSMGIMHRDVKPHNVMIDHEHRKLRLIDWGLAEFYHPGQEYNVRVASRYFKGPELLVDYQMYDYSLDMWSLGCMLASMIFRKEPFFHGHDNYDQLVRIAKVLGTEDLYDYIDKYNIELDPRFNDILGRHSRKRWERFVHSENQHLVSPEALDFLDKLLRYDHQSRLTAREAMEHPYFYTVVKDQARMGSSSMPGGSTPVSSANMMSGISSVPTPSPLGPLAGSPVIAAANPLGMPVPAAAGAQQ
MINK1 (human), sequence (Q8N4C8 whole entry, looked up): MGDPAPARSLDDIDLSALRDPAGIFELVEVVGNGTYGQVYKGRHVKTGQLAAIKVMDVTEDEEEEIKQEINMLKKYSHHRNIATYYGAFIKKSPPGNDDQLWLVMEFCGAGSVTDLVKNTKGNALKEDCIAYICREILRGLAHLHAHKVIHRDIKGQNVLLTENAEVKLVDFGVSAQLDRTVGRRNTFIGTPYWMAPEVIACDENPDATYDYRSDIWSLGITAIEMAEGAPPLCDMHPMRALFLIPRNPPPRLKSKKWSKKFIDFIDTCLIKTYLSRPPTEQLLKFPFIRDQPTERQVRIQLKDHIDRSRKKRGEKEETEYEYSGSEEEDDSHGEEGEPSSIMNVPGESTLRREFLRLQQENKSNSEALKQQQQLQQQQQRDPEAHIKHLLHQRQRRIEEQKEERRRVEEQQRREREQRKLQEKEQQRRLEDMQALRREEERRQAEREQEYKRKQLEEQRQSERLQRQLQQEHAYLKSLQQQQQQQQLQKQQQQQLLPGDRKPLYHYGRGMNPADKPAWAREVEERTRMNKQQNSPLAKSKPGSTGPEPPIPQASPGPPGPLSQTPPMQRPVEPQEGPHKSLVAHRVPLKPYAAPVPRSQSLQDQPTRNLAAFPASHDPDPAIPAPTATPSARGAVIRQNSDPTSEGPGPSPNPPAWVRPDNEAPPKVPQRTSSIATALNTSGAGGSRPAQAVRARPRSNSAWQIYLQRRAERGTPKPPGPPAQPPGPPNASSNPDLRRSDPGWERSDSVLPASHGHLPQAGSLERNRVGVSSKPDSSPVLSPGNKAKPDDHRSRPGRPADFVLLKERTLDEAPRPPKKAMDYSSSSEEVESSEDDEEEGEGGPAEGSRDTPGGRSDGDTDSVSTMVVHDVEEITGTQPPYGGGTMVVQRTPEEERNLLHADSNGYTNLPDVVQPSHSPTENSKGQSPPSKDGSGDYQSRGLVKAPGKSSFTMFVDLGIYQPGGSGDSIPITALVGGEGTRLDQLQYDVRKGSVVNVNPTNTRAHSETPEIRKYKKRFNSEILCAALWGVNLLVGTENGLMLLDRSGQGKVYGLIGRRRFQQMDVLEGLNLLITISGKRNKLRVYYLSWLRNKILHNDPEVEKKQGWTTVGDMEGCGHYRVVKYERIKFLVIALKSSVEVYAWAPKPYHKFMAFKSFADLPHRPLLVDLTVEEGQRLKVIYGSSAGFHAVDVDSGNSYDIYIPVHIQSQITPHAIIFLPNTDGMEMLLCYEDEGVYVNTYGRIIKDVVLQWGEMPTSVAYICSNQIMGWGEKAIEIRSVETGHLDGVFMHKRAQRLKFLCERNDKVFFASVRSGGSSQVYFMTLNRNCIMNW
MAP2K1 (human), sequence (Q02750 whole entry, looked up): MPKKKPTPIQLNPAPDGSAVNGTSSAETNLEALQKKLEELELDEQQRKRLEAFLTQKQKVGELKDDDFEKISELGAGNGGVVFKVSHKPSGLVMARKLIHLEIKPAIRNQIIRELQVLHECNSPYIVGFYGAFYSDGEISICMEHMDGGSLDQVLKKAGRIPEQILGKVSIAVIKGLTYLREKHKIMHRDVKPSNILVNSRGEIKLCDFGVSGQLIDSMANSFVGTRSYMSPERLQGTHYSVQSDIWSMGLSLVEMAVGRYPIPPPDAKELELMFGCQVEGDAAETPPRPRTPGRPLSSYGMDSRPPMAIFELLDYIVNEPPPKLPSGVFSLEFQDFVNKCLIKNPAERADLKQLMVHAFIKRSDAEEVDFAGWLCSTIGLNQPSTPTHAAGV
AURKB (human), sequence (Q96GD4 whole entry, looked up): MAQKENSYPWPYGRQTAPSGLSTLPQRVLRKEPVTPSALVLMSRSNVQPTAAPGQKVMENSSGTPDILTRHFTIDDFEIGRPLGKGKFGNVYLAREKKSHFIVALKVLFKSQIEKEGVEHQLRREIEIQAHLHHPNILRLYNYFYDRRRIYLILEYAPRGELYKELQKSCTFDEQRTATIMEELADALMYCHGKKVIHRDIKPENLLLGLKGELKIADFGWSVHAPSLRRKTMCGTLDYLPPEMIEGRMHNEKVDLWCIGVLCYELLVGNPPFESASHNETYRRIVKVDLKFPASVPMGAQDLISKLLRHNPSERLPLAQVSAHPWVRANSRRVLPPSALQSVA

residual activity (LCK (mouse); compound 0.1 µM): 43% | residual activity (LCK (mouse); compound 1.0 µM): 13% | residual activity (LCK (mouse); compound 10.0 µM): 5% | residual activity (PHKG1 (human); compound 0.1 µM): 43% | residual activity (PHKG1 (human); compound 1.0 µM): 15% | residual activity (PHKG1 (human); compound 10.0 µM): 2% | residual activity (MKNK1 (human); compound 0.1 µM): 97% | residual activity (MKNK1 (human); compound 1.0 µM): 103% | residual activity (MKNK1 (human); compound 10.0 µM): 77% | residual activity (CSNK2A1 (human); compound 0.1 µM): 119% | residual activity (CSNK2A1 (human); compound 1.0 µM): 104% | residual activity (CSNK2A1 (human); compound 10.0 µM): 85% | residual activity (MAPK10 (human); compound 0.1 µM): 94% | residual activity (MAPK10 (human); compound 1.0 µM): 107% | residual activity (MAPK10 (human); compound 10.0 µM): 54% | residual activity ([1]; compound 0.1 µM): 80% | residual activity ([1]; compound 1.0 µM): 94% | residual activity ([1]; compound 10.0 µM): 46% | residual activity (CaMK1 (human); compound 0.1 µM): 62% | residual activity (CaMK1 (human); compound 1.0 µM): 59% | residual activity (CaMK1 (human); compound 10.0 µM): 11% | residual activity (YES1 (human); compound 0.1 µM): 11% | residual activity (YES1 (human); compound 1.0 µM): 11% | residual activity (YES1 (human); compound 10.0 µM): 6% | residual activity (MARK4 (human); compound 0.1 µM): 101% | residual activity (MARK4 (human); compound 1.0 µM): 118% | residual activity (MARK4 (human); compound 10.0 µM): 43% | residual activity (PAK4 (human); compound 0.1 µM): 69% | residual activity (PAK4 (human); compound 1.0 µM): 67% | residual activity (PAK4 (human); compound 10.0 µM): 20% | residual activity (IGF1R (human); compound 0.1 µM): 2% | residual activity (IGF1R (human); compound 1.0 µM): 2% | residual activity (IGF1R (human); compound 10.0 µM): 2% | residual activity (AURKB (human); compound 0.1 µM): 65% | residual activity (AURKB (human); compound 1.0 µM): 42% | residual activity (AURKB (human); compound 10.0 µM): 7% | residual activity (SYK (human); compound 0.1 µM): 82% | residual activity (SYK (human); compound 1.0 µM): 64% | residual activity (SYK (human); compound 10.0 µM): 28% | residual activity (CHEK1 (human); compound 0.1 µM): 54% | residual activity (CHEK1 (human); compound 1.0 µM): 53% | residual activity (CHEK1 (human); compound 10.0 µM): 52% | residual activity (EPHB3 (human); compound 0.1 µM): 22% | residual activity (EPHB3 (human); compound 1.0 µM): 20% | residual activity (EPHB3 (human); compound 10.0 µM): 6% | residual activity (RIPK2 (human); compound 0.1 µM): 20% | residual activity (RIPK2 (human); compound 1.0 µM): 17% | residual activity (RIPK2 (human); compound 10.0 µM): 8% | residual activity (NUAK1 (human); compound 0.1 µM): 40% | residual activity (NUAK1 (human); compound 1.0 µM): 37% | residual activity (NUAK1 (human); compound 10.0 µM): 7% | residual activity (PRKCZ (human); compound 0.1 µM): 104% | residual activity (PRKCZ (human); compound 1.0 µM): 98% | residual activity (PRKCZ (human); compound 10.0 µM): 58% | residual activity (MAP3K11 (human); compound 0.1 µM): 84% | residual activity (MAP3K11 (human); compound 1.0 µM): 77% | residual activity (MAP3K11 (human); compound 10.0 µM): 51% | residual activity (NTRK1 (human); compound 0.1 µM): 14% | residual activity (NTRK1 (human); compound 1.0 µM): 19% | residual activity (NTRK1 (human); compound 10.0 µM): 4% | residual activity (MAP3K9 (human); compound 0.1 µM): 78% | residual activity (MAP3K9 (human); compound 1.0 µM): 69% | residual activity (MAP3K9 (human); compound 10.0 µM): 17% | residual activity (INSRR (human); compound 0.1 µM): 69% | residual activity (INSRR (human); compound 1.0 µM): 80% | residual activity (INSRR (human); compound 10.0 µM): 52% | residual activity (DYRK1A (human); compound 0.1 µM): 103% | residual activity (DYRK1A (human); compound 1.0 µM): 101% | residual activity (DYRK1A (human); compound 10.0 µM): 61% | residual activity (MAPK13 (human); compound 0.1 µM): 97% | residual activity (MAPK13 (human); compound 1.0 µM): 24% | residual activity (MAPK13 (human); compound 10.0 µM): 5% | residual activity (JAK2 JH1 JH2 (human); compound 0.1 µM): 84% | residual activity (JAK2 JH1 JH2 (human); compound 1.0 µM): 80% | residual activity (JAK2 JH1 JH2 (human); compound 10.0 µM): 30% | residual activity (MST4 (human); compound 0.1 µM): 50% | residual activity (MST4 (human); compound 1.0 µM): 50% | residual activity (MST4 (human); compound 10.0 µM): 17% | residual activity (PRKAA1 or PRKAA2 (rat); compound 0.1 µM): 63% | residual activity (PRKAA1 or PRKAA2 (rat); compound 1.0 µM): 47% | residual activity (PRKAA1 or PRKAA2 (rat); compound 10.0 µM): 3% | residual activity (SRC (human); compound 0.1 µM): 22% | residual activity (SRC (human); compound 1.0 µM): 20% | residual activity (SRC (human); compound 10.0 µM): 2% | residual activity (PRKACA (human); compound 0.1 µM): 98% | residual activity (PRKACA (human); compound 1.0 µM): 88% | residual activity (PRKACA (human); compound 10.0 µM): 54% | residual activity (CDK2 CCNA2 (human); compound 0.1 µM): 35% | residual activity (CDK2 CCNA2 (human); compound 1.0 µM): 15% | residual activity (CDK2 CCNA2 (human); compound 10.0 µM): 3% | residual activity (MINK1 (human); compound 0.1 µM): 69% | residual activity (MINK1 (human); compound 1.0 µM): 64% | residual activity (MINK1 (human); compound 10.0 µM): 8% | residual activity (INSR (human); compound 0.1 µM): 19% | residual activity (INSR (human); compound 1.0 µM): 14% | residual activity (INSR (human); compound 10.0 µM): 1% | residual activity (MARK3 (human); compound 0.1 µM): 103% | residual activity (MARK3 (human); compound 1.0 µM): 89% | residual activity (MARK3 (human); compound 10.0 µM): 57% | residual activity (CAMKK2 (human); compound 0.1 µM): 22% | residual activity (CAMKK2 (human); compound 1.0 µM): 19% | residual activity (CAMKK2 (human); compound 10.0 µM): 19% | residual activity (MAP2K1 (human); compound 0.1 µM): 96% | residual activity (MAP2K1 (human); compound 1.0 µM): 85% | residual activity (MAP2K1 (human); compound 10.0 µM): 40% | residual activity (PIM2 (human); compound 0.1 µM): 94% | residual activity (PIM2 (human); compound 1.0 µM): 92% | residual activity (PIM2 (human); compound 10.0 µM): 77%
SMILES: Cc1ccc(Sc2cnc(Nc3cccc(Br)n3)s2)cc1C(=O)N1CCN(C(=O)CN)CC1
